Tests used:
FAK = FAK (Homo sapiens (Human), UniProt Q05397); experiment: Biochemical assay for FAK activity (LANCE TR-FRET, ULight-poly Glu,Ala,Tyr substrate); details: GST-tagged FAK, 120 min reaction
Description: (§1) Biochemical Assay for FAK/Pyk2 Activity
(§2) GST-tagged FAK was purchased from Invitrogen (PV3832). GST-tagged PYK2 was purchased from Invitrogen (PV4567). The activity of FAK/PYK2 was measured by monitoring the phosphorylation of a fluorophore labeled ULight-poly Glu, Ala, Tyr (1:1:1) peptide substrate from Perkin Elmer (TRF0101) in the presence of ATP. The phosphorylated tyrosine residue was recognized by a LANCE Europium chelate labeled anti-phosphotyrosine (PY20) antibody from Perkin Elmer (AD0066). This brought the fluorophore and europium chelate in close proximity ([…]) that upon excitation at 320 nm by an Envision (PerkinElmer), energy can be transferred from the donor Europium chelate to the acceptor fluorophore. […] The strength of the signal was, therefore, directly proportional to the FAK/PYK2 activity.
(§3) To measure inhibitory activity of FAK/PYK2 inhibitors, compounds were first prepare as a 1 mM stock in 100% DMSO and 3-fold serial dilution was performed in a 96-well plate (Corning, 3897) to generate 12 different concentration of 100× stock. A 5 μl of 100× stock of each concentration was added to wells containing 95 μl of 1× reaction buffer (40 mM Tris, pH7.5, […], 1 mM DTT and 1 mM CHAPS) to generate 5× stock. Then 2 μl of 5× stock of each concentration was added to a 384 wells-OptiPlate (PerkinElmer, 6007299).
(§4) For FAK, 4 μl of 2.5 nM FAK, 1 ul of 8 μg/μl BSA and 1.5 μl of 666 nM ULight-poly Glu, Ala, Tyr (1:1:1) peptide substrate, prepared in above reaction buffer, were added to each well. The reaction was initiated by adding 1.5 μl of 33.3 μM ATP. The reaction was allowed to proceed for 120 min before being quenched with 5 μl of 40 mM EDTA stop buffer prepared in 1×LANCE detection buffer (PerkinElmer, CR97-100).
(§5) Upon quenching of the reaction, 5 μl of 8 nM anti-phosphotyrosine antibody was added to each well and incubated for 60 minutes. The plate was measured using an Envision (PerkinElmer) based on the theory mentioned above.

PYK2 = PYK2 (Homo sapiens (Human), UniProt Q14289); experiment: Biochemical assay for PYK2 activity (LANCE TR-FRET, ULight-poly Glu,Ala,Tyr substrate); details: GST-tagged PYK2, 40 min reaction
Chain of PYK2 (Q14289 whole entry): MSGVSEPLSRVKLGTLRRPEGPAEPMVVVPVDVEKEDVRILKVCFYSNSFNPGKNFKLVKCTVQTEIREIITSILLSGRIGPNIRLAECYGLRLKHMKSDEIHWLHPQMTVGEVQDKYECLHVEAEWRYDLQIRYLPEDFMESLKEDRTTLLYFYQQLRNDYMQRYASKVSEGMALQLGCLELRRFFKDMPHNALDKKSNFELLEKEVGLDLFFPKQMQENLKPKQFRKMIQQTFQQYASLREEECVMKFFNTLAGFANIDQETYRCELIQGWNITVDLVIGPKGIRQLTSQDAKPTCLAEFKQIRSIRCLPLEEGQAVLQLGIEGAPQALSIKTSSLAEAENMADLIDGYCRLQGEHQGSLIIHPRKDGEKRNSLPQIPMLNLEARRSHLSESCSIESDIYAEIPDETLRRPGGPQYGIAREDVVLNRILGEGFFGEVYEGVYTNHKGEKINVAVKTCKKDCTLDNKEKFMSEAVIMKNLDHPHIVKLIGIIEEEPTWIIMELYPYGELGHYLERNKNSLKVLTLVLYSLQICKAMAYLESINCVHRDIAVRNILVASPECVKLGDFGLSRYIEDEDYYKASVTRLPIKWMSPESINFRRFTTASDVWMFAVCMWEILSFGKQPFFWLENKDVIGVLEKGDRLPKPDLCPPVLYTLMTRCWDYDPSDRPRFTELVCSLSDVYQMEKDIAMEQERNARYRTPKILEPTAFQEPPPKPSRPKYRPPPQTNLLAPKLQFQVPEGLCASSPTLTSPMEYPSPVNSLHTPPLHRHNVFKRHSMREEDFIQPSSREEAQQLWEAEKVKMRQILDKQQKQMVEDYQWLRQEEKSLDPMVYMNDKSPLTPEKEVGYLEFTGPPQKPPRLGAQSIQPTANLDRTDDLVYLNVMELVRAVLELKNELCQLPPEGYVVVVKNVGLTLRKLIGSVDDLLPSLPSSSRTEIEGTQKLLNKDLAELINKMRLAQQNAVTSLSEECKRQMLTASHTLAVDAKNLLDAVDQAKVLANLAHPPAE
Description: as §1, §2, §3
as §4, with “PYK2, 5” for “FAK, 4”, “2” for “2.5”, “PYK2” for “FAK, 1 ul of 8 μg/μl BSA”, “46.6” for “33.3”, “40” for “120”
as §5

Chain of FAK (Q05397 whole entry): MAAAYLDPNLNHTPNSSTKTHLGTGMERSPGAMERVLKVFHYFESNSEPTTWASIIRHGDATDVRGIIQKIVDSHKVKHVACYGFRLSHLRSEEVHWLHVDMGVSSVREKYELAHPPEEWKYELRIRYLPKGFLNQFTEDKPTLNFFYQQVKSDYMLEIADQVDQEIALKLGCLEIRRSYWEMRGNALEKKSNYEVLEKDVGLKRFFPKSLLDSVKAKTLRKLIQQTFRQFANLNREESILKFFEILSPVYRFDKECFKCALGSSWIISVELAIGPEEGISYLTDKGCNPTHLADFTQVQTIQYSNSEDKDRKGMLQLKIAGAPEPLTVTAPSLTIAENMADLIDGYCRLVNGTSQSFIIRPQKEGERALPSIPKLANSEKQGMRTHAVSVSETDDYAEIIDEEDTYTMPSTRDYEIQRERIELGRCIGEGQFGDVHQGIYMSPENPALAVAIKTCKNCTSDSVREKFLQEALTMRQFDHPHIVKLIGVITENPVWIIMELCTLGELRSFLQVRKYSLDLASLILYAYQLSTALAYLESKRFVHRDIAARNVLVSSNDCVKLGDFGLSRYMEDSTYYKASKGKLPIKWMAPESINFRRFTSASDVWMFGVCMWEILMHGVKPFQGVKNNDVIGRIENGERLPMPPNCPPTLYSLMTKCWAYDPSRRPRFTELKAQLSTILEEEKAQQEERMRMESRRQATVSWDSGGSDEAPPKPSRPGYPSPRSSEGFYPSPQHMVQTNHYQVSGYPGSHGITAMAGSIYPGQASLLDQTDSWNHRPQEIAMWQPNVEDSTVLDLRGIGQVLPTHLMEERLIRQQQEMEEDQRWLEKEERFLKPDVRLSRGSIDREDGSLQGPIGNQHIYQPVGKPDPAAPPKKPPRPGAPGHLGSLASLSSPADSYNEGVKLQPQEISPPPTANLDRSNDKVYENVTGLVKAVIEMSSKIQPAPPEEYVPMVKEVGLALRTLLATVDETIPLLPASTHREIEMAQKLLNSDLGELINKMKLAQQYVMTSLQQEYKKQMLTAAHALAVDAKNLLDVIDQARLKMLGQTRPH

Q: Which IC50 (FAK) does the source give for `COc1cc(N2CCOCC2)ccc1Nc1nc2c(c(Nc3ccccc3S(=O)(=O)NC3CCCC3)n1)CCN2` [Example 7, N-cyclopentyl-2-(2-(2-methoxy-4-morpholinophenylamino)-6,7-dihydro-5H-pyrrolo[2,3-d]pyrimidin-4-ylamino)benzenesulfonamide] here?
A: The IC50 was under 50 nM.

Q: What about the IC50 (PYK2) of the same molecule?
A: The IC50 was under 100 nM.

Q: With `COc1cc(N2CCOCC2)ccc1Nc1nc2c(c(Nc3ccccc3S(=O)(=O)NC3CCCCC3)n1)C1(CC1)CN2` [Example 149, N-cyclohexyl-2-(2′-(2-methoxy-4-morpholinophenylamino)-6′,7′-dihydrospiro[cyclopropane-1,5′-pyrrolo[2,3-d]pyrimidine]-4′-ylamino)benzenesulfonamide] as the molecule, how does the IC50 (FAK) read?
A: The IC50 was under 500 nM.

Q: What about the IC50 (PYK2) of the same molecule?
A: The IC50 was under 500 nM.

Q: For `CCNS(=O)(=O)c1ccccc1Nc1nc(Nc2ccc(N3CCOCC3)cc2OC)nc2c1CCN2` [Example 43, N-ethyl-2-(2-(2-methoxy-4-morpholinophenylamino)-6,7-dihydro-5H-pyrrolo[2,3-d]pyrimidin-4-ylamino)benzenesulfonamide], which IC50 (FAK) is on record?
A: Its IC50 is under 100 nM.

Q: What about the IC50 (PYK2) of the same molecule?
A: Its IC50 is under 20 nM.

Q: `COc1cc(N2CCOCC2)ccc1Nc1nc2c(c(Nc3ccccc3NC(C)=O)n1)CCN2` [Example 9, N-(2-(2-(2-methoxy-4-morpholinophenylamino)-6,7-dihydro-5H-pyrrolo[2,3-d]pyrimidin-4-ylamino)phenyl)acetamide] was tested. Which IC50 (FAK) did it give?
A: The IC50 was under 1000 nM.

Q: And the IC50 (PYK2)?
A: The IC50 was under 1000 nM.

Q: With `CC(C)NS(=O)(=O)c1ccccc1Nc1nc(Nc2ccc(C(=O)N(C)C)cc2)nc2c1CCN2` [Example 62, 4-(4-(2-(N-isopropylsulfamoyl)phenylamino)-6,7-dihydro-5H-pyrrolo[2,3-d]pyrimidin-2-ylamino)-N,N-dimethylbenzamide] as the molecule, how does the IC50 (FAK) read?
A: Its IC50 is under 20 nM.

Q: What about the IC50 (PYK2) of the same molecule?
A: The IC50 was under 20 nM.

Q: Which IC50 (FAK) does the source give for `CC(C)NS(=O)(=O)c1ccccc1Nc1nc(Nc2ccc(N3CCOCC3)cn2)nc2c1CCN2` [Example 58, N-isopropyl-2-(2-(5-morpholinopyridin-2-ylamino)-6,7-dihydro-5H-pyrrolo[2,3-d]pyrimidin-4-ylamino)benzenesulfonamide] here?
A: The IC50 was under 20 nM.

Q: What about the IC50 (PYK2) of the same molecule?
A: Its IC50 is under 50 nM.

Q: `COc1nc(N2CCOCC2)ccc1Nc1nc2c(c(Nc3ccccc3S(=O)(=O)NC(C)C)n1)CCN2` [Example 56, N-isopropyl-2-(2-(2-methoxy-6-morpholino-3-ylamino)-6,7-dihydro-5H-pyrrolo[2,3-d]pyrimidin-4-ylamino)benzenesulfonamide] was tested. Which IC50 (FAK) did it give?
A: The IC50 was under 20 nM.

Q: What about the IC50 (PYK2) of the same molecule?
A: Its IC50 is under 50 nM.

Q: How did the IC50 (FAK) turn out when `COc1cc(N2CCOCC2)ccc1Nc1nc2c(c(Nc3ccccc3N(C)S(C)(=O)=O)n1)C(C)(C)CN2` [Example 122, N-(2-(2-(2-methoxy-4-morpholinophenylamino)-5,5-dimethyl-6,7-dihydro-5H-pyrrolo[2,3-d]pyrimidin-4-ylamino)phenyl)-N-methylmethanesulfonamide] was run?
A: The IC50 was under 50 nM.

Q: What about the IC50 (PYK2) of the same molecule?
A: Its IC50 is under 100 nM.

Q: What does the source list for `COc1cc(N2CCOCC2)ccc1Nc1nc2c(c(Nc3ccccc3S(=O)(=O)NC3CCCCC3)n1)C(C)(C)CN2` [Example 109, N-cyclohexyl-2-(2-(2-methoxy-4-morpholinophenylamino)-5,5-dimethyl-6,7-dihydro-5H-pyrrolo[2,3-d]pyrimidin-4-ylamino)benzenesulfonamide]?
A: IC50 (FAK): < 200 nM; IC50 (PYK2): < 200 nM

Q: How did the IC50 (FAK) turn out when `CNC(=O)c1ccccc1Nc1nc(Nc2ccc(N3CCOCC3)cc2OC)nc2c1C1(CC1)CN2` [Example 152, 2-(2′-(2-methoxy-4-morpholinophenylamino)-6′,7′-dihydrospiro[cyclopropane-1,5′-pyrrolo[2,3-d]pyrimidine]-4′-ylamino)-N-methylbenzamide] was run?
A: The IC50 was under 50 nM.

Q: What about the IC50 (PYK2) of the same molecule?
A: The IC50 was under 20 nM.

Q: `COc1cc(-n2ncnn2)ccc1Nc1nc2c(c(Nc3ccccc3S(=O)(=O)NC(C)C)n1)CCN2` [Example 88, N-isopropyl-2-(2-(2-methoxy-4-(2H-tetrazol-2-yl)phenylamino)-6,7-dihydro-5H-pyrrolo[2,3-d]pyrimidin-4-ylamino)benzenesulfonamide] was tested. Which IC50 (FAK) did it give?
A: Its IC50 is under 50 nM.

Q: And the IC50 (PYK2)?
A: Its IC50 is under 200 nM.

— patent publication US9428508B2, “2,4-diamino-6,7-dihydro-5H-pyrrolo[2,3]pyrimidine derivatives as FAK/Pyk2 inhibitors” (Centaurus BioPharma Co., Ltd., priority 2011, dated 2016)
